One test deals with human neutrophils. Briefly: Human neutrophil oxidative activity, luminol-enhanced chemiluminescence (TNF-primed, fMLP-stimulated). The settings on record: peak chemiluminescence. The class given is cell-based. From the text: Chemiluminescence Methods: Luminol enhanced chemiluminescence, a measure of neutrophil oxidative activity, is dependent upon both superoxide production and mobilization of the granule enzyme myeloperoxidase. The light is emitted from unstable high-energy oxygen species such as hypochlorous acid and singlet oxygen generated by activated neutrophils.
Purified human neutrophils (2×10^6/ml) suspended in Hanks balanced salt solution containing 0.1% human serum albumin (HA), adenosine deaminase (1 U/mL) and rolipram (100 nM) were incubated (37° C.) in a water bath for 15 min with or without rhTNF(10 U/ml). Following incubation 100 µL aliquots of the PMN were transferred to wells (White walled clear bottom 96 well tissue culture plates Costar #3670; 2 wells/condition) containing […] and luminol (final concentration […]) with or without adenosine agonist (final agonist concentrations 0.01-1000 nM). The plate was incubated 5 min (37° C.) and then FMLP (501 in HA; final concentration […]) was added to all wells.
Peak chemiluminescence was determined with a Victor 1420 Multilabel Counter in the chemiluminescence mode using the Wallace Workstation software. Data are presented as peak chemiluminescence as percent of activity in the absence of an adenosine agonist. The EC50 was determined using PRISM software. All compounds were tested with PMNs from three separate donors.
Purified neutrophils (˜98% neutrophils and >95% viable by trypan blue exclusion) containing <1 platelet per 5 neutrophils and <50 pg/ml endotoxin (limulus amebocyte lysate assay) were obtained from normal heparinized (10 U/ml) venous blood by a one step Ficoll-hypaque separation procedure (A. Ferrante et al., J. Immunol. Meth., 36, 109 (1980)).
Luminol-enhanced chemiluminescence, a measure of neutrophil oxidative activity, is dependent upon both superoxide production and mobilization of the lysosomal granule enzyme myeloperoxidase. The light is emitted from unstable high-energy oxygen species generated by activated neutrophils. Purified neutrophils (5-10×10^5/ml) were incubated in Hanks balanced salt solution containing 0.1% human serum albumin (1 ml) with the tested A2A agonist with or without rolipram and with or without tumor necrosis factor-alpha (1 U/ml) for 30 minutes at 37° C. in a shaking water bath. Then luminol (1×10^−4 M) enhanced f-met-leu-phe (1 mcM) stimulated chemiluminescence was read with a Chronolog® Photometer (Crono-log Corp., Havertown, Pa.) at 37° C. for 2-4 minutes. Chemiluminescence is reported as relative peak light emitted (=height of the curve) compared to samples with tumor necrosis factor-alpha and without agonist or rolipram.

Another test has as its target T1, human A3 AR (Homo sapiens, UniProt P0DMS8).
T1 construct: expressed in transfected cells
T1 sequence (P0DMS8 1-318): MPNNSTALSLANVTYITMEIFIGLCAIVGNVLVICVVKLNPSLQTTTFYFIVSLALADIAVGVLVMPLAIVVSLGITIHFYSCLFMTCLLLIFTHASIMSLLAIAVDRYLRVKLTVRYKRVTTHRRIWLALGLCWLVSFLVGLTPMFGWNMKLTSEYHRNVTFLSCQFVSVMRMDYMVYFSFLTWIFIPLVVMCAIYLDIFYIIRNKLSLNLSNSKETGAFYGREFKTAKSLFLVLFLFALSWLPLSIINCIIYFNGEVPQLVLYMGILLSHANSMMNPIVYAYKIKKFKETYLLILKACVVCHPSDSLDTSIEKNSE
Kind of test: Radioligand binding (125I-ABA competition) to human A3 AR in HEK 293 cell membranes. To be noted: read-out: Binding Affinity A3. As to the method:
(§1) Sf9 cells were cultured in Grace's medium supplemented with 10% fetal bovine serum, 2.5 μg/ml amphotericin B and 50 μg/ml gentamycin in an atmosphere of 50% N2/50% O2. Viral infection was performed at a density of 2.5×10^6 cells/mL with a multiplicity of infection of two for each virus used. Infected cells were harvested 3 days post-infection and washed twice in insect PBS (PBS pH 6.3). Cells were then resuspended in lysis buffer (20 mM HEPES pH 7.5, 150 mM NaCl, 3 mM MgCl2, 1 mM β-mercaptoethanol (BME), 5 μg/mL leupeptin, 5 μg/mL pepstatin A, 1 μg/mL aprotinin, and 0.1 mM PMSF) and snap frozen for storage at −80° C. Cells were thawed on ice, brought to 30 mL total volume in lysis buffer, and burst by N2 cavitation (600 psi for 20 minutes). A low-speed centrifugation was performed to remove any unlysed cells (1000×g for 10 minutes), followed by a high-speed centrifugation (17,000×g for 30 minutes). The pellet from the final centrifugation was homogenized in buffer containing 20 mM HEPES pH 8, 100 mM NaCl, 1% glycerol, 2 μg/mL leupeptin, 2 μg/mL pepstatin A, 2 μg/mL Aprotinin, 0.1 mM PMSF, and 10 μM GDP using a small glass homogenizer followed by passage through a 26 gauge needle. Membranes were aliquoted, snap frozen in liquid N2, and stored at −80° C. Membranes from cells stably expressing the human A1 AR (CHO K1 cells) or A3 AR (HEK 293 cells) were prepared as described (Robeva et al., 1996).
(§2) Radioligand binding to recombinant human A2A receptors in Sf9 cell membranes was performed using either the radio labeled agonist, ^125I-APE (Luthin et al., 1995) or the radio labeled antagonist, ^125I-ZM241385 (^1251-ZM). To detect the high affinity, GTPγS-sensitive state of A1 and A3 AR, we used the agonist, ^125I-ABA (Linden et al., 1985;Linden et al., 1993). Binding experiments were performed in triplicate with 5 μg (A2A) or 25 μg (A1 and A3) membrane protein in a total volume of 0.1 mL HE buffer (20 mM HEPES and 1 mM EDTA) with 1 U/mL adenosine deaminase and 5 mM MgCl2 with or without 50 μM GTPγS. Membranes were incubated with radioligands at room temperature for three hours (for agonists) or two hours (for antagonists) in Millipore Multiscreen® 96-well GF/C filter plates and assays were terminated by rapid filtration on a cell harvester (Brandel, Gaithersburg, Md.) followed by 4×150 μl washes over 30 seconds with ice cold 10 mM Tris-HCl, pH 7.4, 10 mM MgCl2. Nonspecific binding was measured in the presence of 50 μM NECA. Competition binding assays were performed as described (Robeva et al., 1996) using 0.5-1 nM ^125I-APE, ^125I-ZM241385, or ^125I-ABA. […] The Ki values for competing compound binding to a single site were derived from IC50 values with correction for radioligand and competing compound depletion as described previously (Linden, 1982).

Test [1] concerns the target T2, recombinant human A2A receptors (Homo sapiens, UniProt P29274).
T2 construct: expressed in transfected cells; host or cells: Sf9 insect cells, viral infection
Briefly: Radioligand binding to recombinant human A2A receptors in Sf9 cell membranes. The settings on record: recombinant human A2A receptor, 125I-APE or 125I-ZM241385, read-out: Binding Affinity A2A. As to the method: as §1, §2

The target in another test is T3, human A1 AR (Homo sapiens, UniProt P30542).
T3 construct: expressed in transfected cells
T3 sequence (P30542 1-326): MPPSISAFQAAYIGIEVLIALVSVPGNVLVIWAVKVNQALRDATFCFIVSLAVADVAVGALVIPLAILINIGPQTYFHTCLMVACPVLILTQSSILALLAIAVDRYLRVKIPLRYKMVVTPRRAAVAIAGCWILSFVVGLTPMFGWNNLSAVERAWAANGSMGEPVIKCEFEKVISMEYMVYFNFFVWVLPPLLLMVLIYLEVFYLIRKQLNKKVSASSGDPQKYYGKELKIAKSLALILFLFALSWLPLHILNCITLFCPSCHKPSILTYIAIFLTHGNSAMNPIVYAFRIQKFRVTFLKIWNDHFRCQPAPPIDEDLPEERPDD
Briefly: Radioligand binding (125I-ABA competition) to human A1 AR in CHO K1 cell membranes. To be noted: read-out: Binding Affinity A1. As for the experimental part: as §1, §2

[2] abbreviates: human neutrophil experiment with Rolipram, read-out: Functional + Roli.
Where [3] appears, read: human neutrophil experiment without Rolipram, read-out: Functional.

Structures are written as SMILES. Like-named read-outs stand apart in the source and are kept apart here.

T2 sequence (P29274 whole entry): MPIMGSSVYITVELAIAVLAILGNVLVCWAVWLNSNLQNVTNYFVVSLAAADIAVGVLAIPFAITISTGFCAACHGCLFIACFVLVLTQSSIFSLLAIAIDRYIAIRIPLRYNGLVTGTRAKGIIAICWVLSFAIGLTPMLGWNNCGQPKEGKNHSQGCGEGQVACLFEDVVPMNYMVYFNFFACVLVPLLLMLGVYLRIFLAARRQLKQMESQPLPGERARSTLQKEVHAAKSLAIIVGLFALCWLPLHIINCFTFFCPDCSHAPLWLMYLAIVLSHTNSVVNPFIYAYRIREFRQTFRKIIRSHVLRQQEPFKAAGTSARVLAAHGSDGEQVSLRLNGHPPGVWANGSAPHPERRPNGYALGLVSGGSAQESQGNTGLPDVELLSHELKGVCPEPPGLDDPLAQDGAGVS

Consider `CCNC(=O)[C@H]1O[C@@H](n2cnc3c(N)nc(C#CC4(O)CCCC5CCCCC54)nc32)C(O)C1O` (stereo in doubt) [Example 5, 5-[6-Amino-2-(1-hydroxy-decahydro-naphthalen-1-ylethynyl)-purin-9-yl]-3,4-dihydroxy-tetrahydro-furan-2-carboxylic acid ethylamide], for which the EC50 was determined as 0.28 nM with human neutrophils (setting [2]) and 2.5 nM with human neutrophils (setting [3]). The Ki came to 4.9 nM on human A3 AR, 0.7 nM in test [1] and 2.6 nM on human A1 AR.
Taken in the same sequence, the figures for `CCNC(=O)[C@H]1O[C@@H](n2cnc3c(N)nc(C#CC4(O)CC5CCC4C5)nc32)C(O)C1O` (single isomer, unassigned) [Example 1, 5-[6-Amino-2-(2-hydroxy-bicyclo[2.2.1]hept-2-ylethynyl)-purin-9-yl]-3,4-dihydroxy-tetrahydro-furan-2-carboxylic acid ethylamide] were 0.22 nM, 3.1 nM, 10 nM, 0.2 nM and 31 nM.
Taken in the same sequence, the figures for `CCNC(=O)[C@H]1O[C@@H](n2cnc3c(N)nc(C#CC4(O)CCCC5CCCCC54)nc32)C(O)C1O` (stereo in doubt) [Example 4, 5-[6-Amino-2-(1-hydroxy-decahydro-naphthalen-1-ylethynyl)-purin-9-yl]-3,4-dihydroxy-tetrahydro-furan-2-carboxylic acid ethylamide] were 3.7 nM, 25 nM, 28.3 nM, 6.4 nM and 7.3 nM.
Taken in the same sequence, the figures for `CCNC(=O)[C@H]1O[C@@H](n2cnc3c(N)nc(C#CC4(O)CC5CCC4C5)nc32)C(O)C1O` (single isomer, unassigned) [Example 2, 5-[6-Amino-2-(2-hydroxy-bicyclo[2.2.1]hept-2-ylethynyl)-purin-9-yl]-3,4-dihydroxy-tetrahydro-furan-2-carboxylic acid ethylamide] were 0.058 nM, 0.5 nM, 3 nM, 0.3 nM and 11 nM.
With `Nc1nc(C#CC2(O)C3CC4CC(C3)CC2C4)nc2c1ncn2[C@@H]1O[C@H](CO)C(O)C1O` (stereo in doubt) [Example 6, 2-[6-Amino-2-(2-hydroxy-adamantan-2-ylethynyl)-purin-9-yl]-5-hydroxymethyl-tetrahydro-furan-3,4-diol], the EC50 was determined as 0.3 nM with human neutrophils (setting [2]) and 4.9 nM with human neutrophils (setting [3]). Besides, the Ki on human A3 AR was determined as 2.9 nM; in test [1] it was 0.6 nM; on human A1 AR it was 28.5 nM.
For the compound `CCNC(=O)[C@H]1O[C@@H](n2cnc3c(N)nc(C#CC4(O)C5CC6CC(C5)CC4C6)nc32)C(O)C1O` (stereo in doubt) [Example 3, 5-[6-Amino-2-(2-hydroxy-adamantan-2-ylethynyl)-purin-9-yl]-3,4-dihydroxy-tetrahydro-furan-2-carboxylic acid ethylamide], the EC50 worked out at 0.22 nM in the test on human neutrophils (Homo sapiens, Neutrophil, human neutrophil experiment with Rolipram, read-out: Functional + Roli) and 3.8 nM in the test on human neutrophils (Homo sapiens, Neutrophil, human neutrophil experiment without Rolipram, read-out: Functional). In addition, the Ki at human A3 AR came to 4 nM; in test [1] it was 0.2 nM; on human A1 AR, 75 nM.

These data come from patent US7442687B2, “2-polycyclic propynyl adenosine analogs having A2A agonist activity” (The University of Virginia Patent Foundation, priority 2004, dated 2008).
